Like-named read-outs stand apart in the source and are kept apart here.
Key:
[1] = system: Serratia marcescens expressing IMP-1 (CL5741); experiment: Antibiotic potentiation activity: synergistic concentration (MITC95) with imipenem, growth by OD600; assay type: cell-based
Method in brief: (§1)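 MITC95 = lowest inhibitor concentration giving 95% growth inhibition, read by absorbance after 22–24 h at 35° C. Compound range 200 μM to 0.195 μM, imipenem fixed at 1 or 4 μg/ml, bacteria in 1.1×CAMHB from saline suspension diluted 1:100.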

[2] = system: Escherichia coli expressing NDM-1 (CLB30016); experiment: as above; assay type: cell-based
Method in brief: as §1

[3] = system: Klebsiella pneumoniae expressing VIM-1 (IHMA599644); experiment: as above; assay type: cell-based
Method in brief: as §1

IMP-1 = IMP-1 (Serratia marcescens, UniProt P52699); experiment: Enzyme activity: determination of IC50, fluorescence assay with CCF2-FA substrate; assay type: biochemical; conditions: CCF2-FA 1.25 μM, 2 hours at 25° C., read-out: IMP1 IC50
Sequence of IMP-1 (P52699 19-246, looked up, species assumed): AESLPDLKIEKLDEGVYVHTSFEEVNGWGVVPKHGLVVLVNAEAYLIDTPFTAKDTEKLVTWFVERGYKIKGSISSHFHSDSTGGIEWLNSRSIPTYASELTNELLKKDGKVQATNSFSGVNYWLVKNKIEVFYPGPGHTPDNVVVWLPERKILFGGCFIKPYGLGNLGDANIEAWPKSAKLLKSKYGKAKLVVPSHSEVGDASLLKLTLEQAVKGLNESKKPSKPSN
Method in brief: (§2)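 In pH 7 phosphate buffer (100 mM) with 10 μM ZnSO4 and 0.005% Tween-20, CCF2-FA substrate (1.25 μM final) was hydrolysed for 2 h at 25 °C by NDM-1, IMP-1 or VIM-1 at 1, 2 or 30 pM in the presence of inhibitor at 20–0.00063 μM. Emission 460 nm/excitation 405 nm; 4-parameter curve fit gave IC50.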

NDM-1 = NDM-1 (Klebsiella pneumoniae, UniProt C7C422); experiment: as above; assay type: biochemical; conditions: CCF2-FA 1.25 μM, 2 hours at 25° C., read-out: NDM1 IC50
Sequence of NDM-1 (C7C422 29-270, looked up, species assumed): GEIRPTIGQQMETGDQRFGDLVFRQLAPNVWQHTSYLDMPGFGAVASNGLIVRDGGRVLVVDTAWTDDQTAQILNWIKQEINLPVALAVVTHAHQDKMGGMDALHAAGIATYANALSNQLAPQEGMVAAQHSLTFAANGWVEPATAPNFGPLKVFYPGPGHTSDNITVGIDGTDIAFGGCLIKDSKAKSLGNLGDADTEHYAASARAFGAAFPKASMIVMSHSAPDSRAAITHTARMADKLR
Method in brief: as §2

VIM-1 = VIM-1 (Pseudomonas aeruginosa, UniProt A0A0F7KYQ8); experiment: as above; assay type: biochemical; conditions: CCF2-FA 1.25 μM, 2 hours at 25° C., read-out: VIM1 IC50
Method in brief: as §2

[4] = S. marcescens CL5741 (IMP-1), 95% inhibition of growth
[5] = E. coli CLB30016 (NDM-1), 95% inhibition of growth
[6] = K. pneumoniae IHMA599644 (VIM-1), 95% inhibition of growth
[7] = 95% inhibition of bacterial growth, strain CL5741
[8] = 95% inhibition of bacterial growth, strain CLB30016
[9] = 95% inhibition of bacterial growth, strain IHMA599644

SMILES | IMP1 SM5741 MITC95 [1, 4] | NDM1 EC30016 MITC95 [2, 5] | VIM1 KP599644 MITC95 [3, 6] | IC50 (IMP-1; IMP-1 enzyme 2 pM) | IC50 (NDM-1; NDM-1 enzyme 1 pM) | IC50 (VIM-1; VIM-1 enzyme 30 pM) | IMP1 SM5741 MITC95 [1, 7] | NDM1 EC30016 MITC95 [2, 8] | VIM1 KP599644 MITC95 [3, 9] | IC50 (IMP-1; enzyme 2 pM) | IC50 (NDM-1; enzyme 1 pM) | IC50 (VIM-1; enzyme 30 pM)
CC(C)C[C@H](C(=O)O)[C@H](Cc1ccc(N2CC(CCN)C2)nc1)c1nnn[nH]1 [Example 326, (2S)-2-[(1S)-2-{6-[3-(2-aminoethyl)azetidin-1-yl]pyridin-3-yl}-1-(1H-tetrazol-5-yl)ethyl]-4-methylpentanoic acid] | >200 µM | 50 µM | 6.2 µM | > 20 µM | 6.4 µM | 0.029 µM |  |  |  |  |  | 
CC(C)C[C@H](C(=O)O)[C@H](Cc1ccc(Oc2ccccc2C2CCCN2)nc1)c1nn[nH]n1 (stereo partly drawn) [Example 376, (2S)-4-methyl-2-[(1S)-2-[6-(2-pyrrolidin-2-ylphenoxy)pyridin-3-yl]-1-(2H-tetrazol-5-yl)ethyl]pentanoic acid] | 25 µM | 25 µM | 50 µM | 0.66 µM | 0.077 µM | 0.0046 µM |  |  |  |  |  | 
CC(C)C[C@H](C(=O)O)[C@H](Cc1ccc(N2CCC(N)C2)nc1)c1nnn[nH]1 (stereo partly drawn) [Example 310, (2S)-2-[(1S)-2-[6-(3-aminopyrrolidin-1-yl)pyridin-3-yl]-1-(1H-tetrazol-5-yl)ethyl]-4-methylpentanoic acid] | 25 µM | 4.7 µM | 12.5 µM | 1.8 µM | 0.43 µM | 0.0046 µM |  |  |  |  |  | 
CC(C)[C@H](C(=O)O)[C@H](Cc1ccc(Br)nc1)c1nnn[nH]1 [Example 91, (2S,3S)-4-(6-bromopyridin-3-yl)-2-isopropyl-3-(1H-tetrazol-5-yl)butanoic acid] |  |  |  |  |  |  | 50 µM | 7.8 µM | 12.5 µM | 2.2 µM | 0.032 µM | 0.0079 µM
CC(C)C[C@H](C(=O)O)[C@H](Cc1ccc(N2CCC(CNS(C)(=O)=O)CC2)nc1)c1nnn[nH]1 [Example 312, (2S)-4-methyl-2-[(1S)-2-[6-(4-{[(methylsulfonyl)amino]methyl}piperidin-1-yl)pyridin-3-yl]-1-(1H-tetrazol-5-yl)ethyl]pentanoic acid] | 31 µM | 9.4 µM | 150 µM | 0.25 µM | 0.042 µM | 0.048 µM |  |  |  |  |  | 
CCC[C@H](C(=O)O)[C@H](Cc1ccc(C(N)=O)cn1)c1nnn[nH]1 [Example 93, (S)-2-((S)-2-(5-carbamoylpyridin-2-yl)-1-(1H-tetrazol-5-yl)ethyl) pentanoic acid] |  |  |  |  |  |  | >200 µM | 6.2 µM | 25 µM | > 20 µM | 0.58 µM | 0.09 µM
CC(C)C[C@H](C(=O)O)[C@H](Cc1cc(F)cc(Br)c1)c1nnn[nH]1 [Example 24, (2S)-2-[(1S)-2-(3-bromo-5-fluorophenyl)-1-(1H-tetrazol-5-yl)ethyl]-4-methylpentanoic acid] |  |  |  |  |  |  | 4.7 µM | 9.4 µM | 12.5 µM | 0.23 µM | 0.018 µM | 0.0006 µM
O=C(O)[C@@H](CCCC1CCNCC1)[C@H](Cc1ccc(C2CCNC2)cc1)c1nnn[nH]1 (stereo partly drawn) [Example 434, (2S)-5-(piperidin-4-yl)-2-((1S)-2-(4-(pyrrolidin-3-yl)phenyl)-1-(1H-tetrazol-5-yl)ethyl)pentanoic acid 2,2,2-trifluoroacetate (1:2)] | 100 µM | 12.5 µM | 25 µM | 2 µM | 0.0679 µM | 0.0166 µM |  |  |  |  |  | 
CC(C)[C@H](C(=O)O)[C@H](Cc1ccc(N[C@@H]2CCNC2)nc1)c1nnn[nH]1 [Example 124, (2S,3S)-2-isopropyl-4-(6-((R)-pyrrolidin-3-ylamino)pyridin-3-yl)-3-(1H-tetrazol-5-yl)butanoic acid] |  |  |  |  |  |  | 100 µM | 4.7 µM | 50 µM | 15 µM | 0.54 µM | 0.059 µM
CC(C)C[C@H](C(=O)O)[C@H](Cc1ccc(N2CCC(CN)CC2)nc1)c1nnn[nH]1 [Example 307, (2S)-2-[(1S)-2-{6-[4-(aminomethyl)piperidin-1-yl]pyridin-3-yl}-1-(1H-tetrazol-5-yl)ethyl]-4-methylpentanoic acid] | 6.2 µM | 4.7 µM | 25 µM | 0.39 µM | 0.12 µM | 0.024 µM |  |  |  |  |  | 
